Patent US11279714B2, “Anti-infective compounds” (priority 2014, dated 2022)
Values after ≈ are worked out from the molar mass of the structure shown.

What was measured:
[1] = test system: M. tuberculosis H37Rv expressing the green fluorescent protein (H37Rv-GFP); assay: microbe, parasite or virus in culture; type: cell-based; conditions: Mycobacterium tuberculosis, H37RV, 120 h; read-out: QUM (MIC50)
[2] = test system: Raw 264.7 cells infected with H37Rv-GFP; assay: microbe, parasite or virus in culture; type: cell-based, M. tuberculosis; conditions: Mycobacterium tuberculosis, H37RV, 120 h; read-out: QIM (MIC50)

| SMILES | MIC50 [1] [µM] | MIC50 [2] [µM] | melting point [°C] |
| --- | --- | --- | --- |
| COc1ccc(NC(=O)c2cc3sc(N4CCC(Oc5ccccc5)CC4)nc3s2)cc1 [Compound 106] | > 20 | < 1 | 225 |
| Cc1nc2cc(NC(=O)c3cc4sc(N5CCOCC5)nc4s3)c(Cl)cc2o1 [Compound 141] | > 20 | > 20 | 277 |
| O=C(Nc1ccc(O)cc1)c1cc2nc(N3CCCCC3)sc2s1 [Compound 18] | 1 to 20 (≈ 0.359 to 7.19 µg/mL) | > 20 | 266 |
| COc1ccc(NC(=O)c2cc3sc(N4CCC(F)(F)CC4)nc3s2)cc1 [Compound 72] | 1 to 20 (≈ 0.409 to 8.19 µg/mL) | < 1 | 263.5 |
| COc1ccc(NC(=O)c2cc3sc(NC4CCCCC4)nc3s2)cc1 [Compound 79] | > 20 | < 1 | 231 |
| O=C(Nc1ccc(N2CCC(Cc3ccc(F)cc3)CC2)cc1)c1cc2sc(N3CCOCC3)nc2s1 [Compound 183] | > 20 | < 1 | 246 |
| COc1ccc(OC(=O)c2ccc(NC(=O)c3cc4sc(N5CCOCC5)nc4s3)cc2)cc1 [Compound 111] | 1 to 20 (≈ 0.496 to 9.91 µg/mL) | < 1 | 302.6 |
| O=C(Nc1ccc(F)c(F)c1)c1ccc2nc(N3CCCCC3)ccc2c1 [Compound 16] | > 20 | > 20 | 194 |
| O=C(Nc1ccc(F)cc1)c1cc2nc(N3CCCCC3)sc2s1 [Compound 8] | 1 to 20 (≈ 0.361 to 7.23 µg/mL) | 1 to 20 (≈ 0.361 to 7.23 µg/mL) | 218 |
| Cc1nc2cc(NC(=O)c3sc4nc(N5CCOCC5)sc4c3-c3ccccc3)ccc2o1 [Compound 166] | > 20 | > 20 | 285 |
| COc1ccc(NC(=O)c2cc3sc(N4CCCCC4)nc3s2)cn1 [Compound 47] | < 1 | < 1 | 232.4 |
| COc1ccc(NC(=O)c2cc3ncsc3s2)cc1 [Compound 21] | > 20 | > 20 | 236 |
| CC(C)(C)OC(=O)c1ccc(NC(=O)c2cc3sc(N4CCOCC4)nc3s2)cc1 [Compound 129] | 1 to 20 (≈ 0.446 to 8.91 µg/mL) | < 1 | 244 |
| CN(C(=O)c1cc2nc(N3CCCCC3)sc2s1)c1ccc(F)c(F)c1 [Compound 20] | 1 to 20 (≈ 0.393 to 7.87 µg/mL) | > 20 | 170.1 |
| CC(C)(C)OC(=O)Nc1cc2sc(N3CCCCC3)nc2s1 [Compound 81] | > 20 | > 20 | 157 |
| Cc1nc2cc(NC(=O)c3cc4sc(N5CCC(C(=O)NCc6ccccc6)CC5)nc4s3)ccc2o1 [Compound 186] | > 20 | < 1 | 264.9 |
| COc1ccc(NC(=O)c2cc3sc(N4CCC(OCc5ccccc5)CC4)nc3s2)cc1 [Compound 77] | 1 to 20 (≈ 0.48 to 9.59 µg/mL) | < 1 | 190.3 |

| SMILES | MIC50 [1] [µM] | MIC50 [2] [µM] | melting point [°C] |
| --- | --- | --- | --- |
| COc1ccc(NC(=O)c2cc3sc(N4CC5CC4CN5)nc3s2)cc1 (stereo not drawn) [Compound 94] | > 20 | > 20 | 161 |
| O=C(Nc1ccc(-c2n[nH]cc2F)cc1)c1cc2sc(N3CCOCC3)nc2s1.O=C(O)C(F)(F)F [Compound 159] | 1 to 20 | < 1 | 287.2 |
| CN(C)C(=O)C1CCN(c2nc3sc(C(=O)Nc4ccc5oc(CCc6ccc(F)cc6)nc5c4)cc3s2)CC1 [Compound 197] | > 20 | < 1 | 259 |
| CCOC(=O)c1ccc(NC(=O)c2cc3sc(N4CCOCC4)nc3s2)cc1 [Compound 108] | 1 to 20 (≈ 0.418 to 8.35 µg/mL) | < 1 | 274 |
| O=C(Nc1ccc(CN2CCC(c3ccc(Cl)cc3)CC2)cc1)c1cc2sc(N3CCOCC3)nc2s1 [Compound 200] | > 20 | > 20 | 254.6 |
| CC(CNC(=O)c1ccc2nc(N3CCCCC3)sc2c1)c1ccccc1 (stereo not drawn) [Compound 1] | > 20 | > 20 | 196 |
| Cc1nc2cc(CCNC(=O)c3cc4sc(N5CCOCC5)nc4s3)ccc2o1 [Compound 177] | 1 to 20 (≈ 0.429 to 8.57 µg/mL) | < 1 | 219.4 |
| Cc1nc2cc(NC(=O)c3sc4nc(N5CCOCC5)sc4c3Br)ccc2o1 [Compound 157] | > 20 | > 20 | 269 |
| Cc1nc2cc(NC(=O)C3CCc4nc(N5CCOCC5)sc4C3)ccc2o1 (stereo not drawn) [Compound 170] | > 20 | > 20 | 239 |
| O=C(Nc1cccc(Br)c1)c1cc2sc(N3CCOCC3)nc2s1 [Compound 118] | > 20 | < 1 | 199 |
| O=C(Nc1ccc(O)cc1)c1cc2sc(N3CCCCC3)nc2s1 [Compound 97] | 1 to 20 (≈ 0.359 to 7.19 µg/mL) | 1 to 20 (≈ 0.359 to 7.19 µg/mL) | 246 |
| Cc1nnc(-c2ccc(NC(=O)c3cc4sc(N5CCOCC5)nc4s3)cc2Cl)o1 [Compound 148] | > 20 | > 20 | 248 |
| COc1ccc(NC(=O)c2ccc3sc(N4CCCCC4)nc3c2)cc1 [Compound 70] | > 20 | > 20 | 222 |
| Nc1ccc(OC(=O)c2cc3nc(N4CCCCC4)sc3s2)cc1 [Compound 9] | > 20 | > 20 | 153 |
| O=C(Nc1ccc(F)cc1)c1cc2sc(N3CCOCC3)nc2s1 [Compound 99] | 1 to 20 (≈ 0.363 to 7.27 µg/mL) | < 1 | 240 |
| O=C(c1cc2nc(N3CCCCC3)sc2s1)N1CCOCC1 [Compound 26] | > 20 | > 20 | 188 |
